Assay results as given in patent US20090099195A1 (ASTRAZENECA AB, priority 2007, published 2009).

Target: T1, hP2X3 (human Purinergic P2X receptors subtype 3), clone B (Homo sapiens, UniProt P56373)
T1 sequence (P56373 1-397): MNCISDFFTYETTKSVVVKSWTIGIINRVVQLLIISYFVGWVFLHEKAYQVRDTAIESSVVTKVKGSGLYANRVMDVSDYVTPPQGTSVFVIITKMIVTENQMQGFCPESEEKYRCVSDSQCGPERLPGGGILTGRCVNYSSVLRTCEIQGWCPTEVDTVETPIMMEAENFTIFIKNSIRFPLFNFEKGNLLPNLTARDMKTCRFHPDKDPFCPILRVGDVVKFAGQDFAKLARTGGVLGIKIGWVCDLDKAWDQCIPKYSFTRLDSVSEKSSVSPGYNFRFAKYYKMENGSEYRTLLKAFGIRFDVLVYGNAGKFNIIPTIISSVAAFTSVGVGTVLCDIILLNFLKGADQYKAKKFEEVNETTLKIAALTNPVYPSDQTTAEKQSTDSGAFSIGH
Assay: hP2X3 FLIPR calcium (Fluo-4) antagonist assay, clone B
Conditions: Human P2X3 FLIPR Clone B IC50 (nM), RLE cells expressing hP2X3 clone B (NM_002559); agonist 500 nM α,β-methylene-ATP

| IC50 | SMILES |
| --- | --- |
| 580 nM | CC(=O)N1CCN(c2nc(N[C@@H]3CCC[C@H]3c3ccc(Cl)cc3)c3c(n2)C(=O)N(C(C)C)C3)CC1 (racemic) [Example 33, 2-(4-acetylpiperazin-1-yl)-4-{[trans-2-(4-chlorophenyl)cyclopentyl]amino}-6-isopropyl-5,6-dihydro-7H-pyrrolo[3,4-d]pyrimidin-7-one] |
| 970 nM | CC(=O)N1CCN(c2nc(NC(C)C3COc4ccccc4O3)c3c(n2)C(=O)N(C(C)C)C3)CC1 (single isomer, unassigned) [Example 178, 2-(4-acetylpiperazin-1-yl)-4-(1-(2,3-dihydrobenzo[b][1,4]dioxin-2-yl)ethylamino)-6-isopropyl-5H-pyrrolo[3,4-d]pyrimidin-7(6H)-one] |
| 190 nM | CC(=O)N1CCN(c2nc(NC(C)C3COc4ccccc4O3)c3c(n2)C(=O)N(C(C)C)C3)CC1 (single isomer, unassigned) [Example 179, 2-(4-acetylpiperazin-1-yl)-4-(1-(2,3-dihydrobenzo[b][1,4]dioxin-2-yl)ethylamino)-6-isopropyl-5H-pyrrolo[3,4-d]pyrimidin-7(6H)-one] |
| 9900 nM | CC(=O)N1CCN(c2nc3c(c(N4CCCC4c4ccc5ncccc5c4)n2)CN(C(C)C)C3=O)CC1 (single isomer, unassigned) [Example 284, 4-(4-acetylpiperazin-1-yl)-8-propan-2-yl-2-(2-quinolin-6-ylpyrrolidin-1-yl)-3,5,8-triazabicyclo[4.3.0]nona-1,3,5-trien-7-one] |
| 100 nM | CC(=O)N1CCN(c2nc3c(c(N4CCCC4c4ccc5ncccc5c4)n2)CN(C(C)C)C3=O)CC1 (single isomer, unassigned) [Example 285, 4-(4-acetylpiperazin-1-yl)-8-propan-2-yl-2-(2-quinolin-6-ylpyrrolidin-1-yl)-3,5,8-triazabicyclo[4.3.0]nona-1,3,5-trien-7-one] |
| 1400 nM | COc1ccc(CC2CCCN2c2nc(N3CCN(C(C)=O)CC3)nc3c2CN(C(C)C)C3=O)cc1 (single isomer, unassigned) [Example 288, 2-(4-acetylpiperazin-1-yl)-6-isopropyl-4-[2-[(4-methoxyphenyl)methyl]pyrrolidin-1-yl]-5H-pyrrolo[3,4-d]pyrimidin-7-one] |
| 29 nM | CCC(C)N1Cc2c(NCc3cc4ccccc4cn3)nc(N3CCN(C(C)=O)CC3)nc2C1=O (single isomer, unassigned; (+)) [Example 310, (+)-2-(4-acetylpiperazin-1-yl)-4-(3-isoquinolylmethylamino)-6-sec-butyl-5H-pyrrolo[3,4-d]pyrimidin-7-one] |
| 42 nM | CCC(C)N1Cc2c(NCc3cnc4ccccc4c3)nc(N3CCN(C(C)=O)CC3)nc2C1=O (single isomer, unassigned; (-)) [Example 309, (−)-2-(4-acetylpiperazin-1-yl)-4-(3-quinolylmethylamino)-6-sec-butyl-5H-pyrrolo[3,4-d]pyrimidin-7-one] |
| 7600 nM | CC(C)N1Cc2c(NCc3cnc4ccccc4c3)nc(N3CCN4CCCC4C3)nc2C1=O (stereo in doubt) [Example 141, (R)-2-(Hexahydro-pyrrolo[1,2-a]pyrazin-2-yl)-6-isopropyl-4-[(quinolin-3-ylmethyl)-amino]-5,6-dihydro-pyrrolo[3,4-d]pyrimidin-7-one] |
| 4800 nM | CC(=O)N1CCN(c2nc(NC3CCCc4ccccc43)c3c(n2)C(=O)N(C(C)C)C3)CC1 (stereo not drawn) [Example 1, 2-(4-acetylpiperazin-1-yl)-6-isopropyl-4-(1,2,3,4-tetrahydronaphthalen-1-ylamino)-5,6-dihydro-7H-pyrrolo[3,4-d]pyrimidin-7-one] |
| 1900 nM | CCOC(=O)C(CNc1nc(N2CCN(C(C)=O)CC2)nc2c1CN(C(C)C)C2=O)c1ccccc1 (stereo not drawn) [Example 2, ethyl 3-{[2-(4-acetylpiperazin-1-yl)-6-isopropyl-7-oxo-6,7-dihydro-5H-pyrrolo[3,4-d]pyrimidin-4-yl]amino}-2-phenylpropanoate] |
| 4600 nM | CC(=O)N1CCN(c2nc3c(c(N(Cc4ccccc4)CC4CCCO4)n2)CN(C(C)C)C3=O)CC1 (stereo not drawn) [Example 3, 2-(4-acetylpiperazin-1-yl)-4-[benzyl(tetrahydrofuran-2-ylmethyl)amino]-6-isopropyl-5,6-dihydro-7H-pyrrolo[3,4-d]pyrimidin-7-one] |
| 800 nM | CC(=O)N1CCN(c2nc3c(c(N(Cc4ccc(F)cc4)C4CCCC4)n2)CN(C(C)C)C3=O)CC1 [Example 4, 2-(4-acetylpiperazin-1-yl)-4-[cyclopentyl(4-fluorobenzyl)amino]-6-isopropyl-5,6-dihydro-7H-pyrrolo[3,4-d]pyrimidin-7-one] |
| 440 nM | CC(=O)N1CCN(c2nc(NC(C)c3ccc(C(C)(C)C)cc3)c3c(n2)C(=O)N(C(C)C)C3)CC1 (stereo not drawn) [Example 5, 2-(4-acetylpiperazin-1-yl)-4-{[1-(4-tert-butylphenyl)ethyl]amino}-6-isopropyl-5,6-dihydro-7H-pyrrolo[3,4-d]pyrimidin-7-one] |
| 160 nM | CC(=O)N1CCN(c2nc(NC(C)c3ccc(CC(C)C)cc3)c3c(n2)C(=O)N(C(C)C)C3)CC1 (stereo not drawn) [Example 6, 2-(4-acetylpiperazin-1-yl)-4-{[1-(4-isobutylphenyl)ethyl]amino}-6-isopropyl-5,6-dihydro-7H-pyrrolo[3,4-d]pyrimidin-7-one] |
| 85 nM | Cc1ccc(C(Nc2nc(NCCN(C)C)nc3c2CN(C(C)C)C3=O)c2ccccc2)cc1 (stereo not drawn) [Example 7, 2-{[2-(dimethylamino)ethyl]amino}-6-isopropyl-4-{[(4-methylphenyl)(phenyl)methyl]amino}-5,6-dihydro-7H-pyrrolo[3,4-d]pyrimidin-7-one] |
| 91 nM | CC(C)N1Cc2c(NC(c3ccccc3)c3ccc(Cl)cc3)nc(NCCN(C)C)nc2C1=O (stereo not drawn) [Example 9, 4-{[(4-chlorophenyl)(phenyl)methyl]amino}-2-{[2-(dimethylamino)ethyl]amino}-6-isopropyl-5,6-dihydro-7H-pyrrolo[3,4-d]pyrimidin-7-one] |
| 1200 nM | CC(=O)N1CCN(c2nc(NC(c3ccc(C(C)C)cc3)C(C)C)c3c(n2)C(=O)N(C(C)C)C3)CC1 (stereo not drawn) [Example 10, 2-(4-acetylpiperazin-1-yl)-6-isopropyl-4-{[1-(4-isopropylphenyl)-2-methylpropyl]amino}-5,6-dihydro-7H-pyrrolo[3,4-d]pyrimidin-7-one] |
| 3900 nM | CC(=O)N1CCN(c2nc(NC(C)Cc3ccc(F)cc3)c3c(n2)C(=O)N(C(C)C)C3)CC1 (stereo not drawn) [Example 12, 2-(4-acetylpiperazin-1-yl)-4-{[2-(4-fluorophenyl)-1-methylethyl]amino}-6-isopropyl-5,6-dihydro-7H-pyrrolo[3,4-d]pyrimidin-7-one] |
| 220 nM | CC(=O)N1CCN(c2nc(NC(C)c3nc(-c4ccccc4)no3)c3c(n2)C(=O)N(C(C)C)C3)CC1 (stereo not drawn) [Example 13, 2-(4-acetylpiperazin-1-yl)-6-isopropyl-4-{[1-(3-phenyl-1,2,4-oxadiazol-5-yl)ethyl]amino}-5,6-dihydro-7H-pyrrolo[3,4-d]pyrimidin-7-one] |
| 70 nM | CC(C)N1Cc2c(NC(c3ccc(F)cc3)c3ccc(F)cc3)nc(NCCN(C)C)nc2C1=O [Example 17, 4-{[bis(4-fluorophenyl)methyl]amino}-2-{[2-(dimethylamino)ethyl]amino}-6-isopropyl-5,6-dihydro-7H-pyrrolo[3,4-d]pyrimidin-7-one] |
| 180 nM | CCN1CCN(c2nc(NC(c3ccccc3)c3ccc(Cl)cc3)c3c(n2)C(=O)N(C(C)C)C3)CC1 (stereo not drawn) [Example 18, 4-{[(4-chlorophenyl)(phenyl)methyl]amino}-2-(4-ethylpiperazin-1-yl)-6-isopropyl-5,6-dihydro-7H-pyrrolo[3,4-d]pyrimidin-7-one] |
| 93 nM | CC(C)N1Cc2c(NC(c3ccccc3)c3ccc(Cl)cc3)nc(N(C)CCN(C)C)nc2C1=O (stereo not drawn) [Example 19, 4-{[(4-chlorophenyl)(phenyl)methyl]amino}-2-[[2-(dimethylamino)ethyl](methyl)amino]-6-isopropyl-5,6-dihydro-7H-pyrrolo[3,4-d]pyrimidin-7-one] |
| 100 nM | CC(C)N1Cc2c(NC(c3ccccc3)c3ccc(Cl)cc3)nc(N3CC4CC3CN4C)nc2C1=O (stereo not drawn) [Example 20, 4-{[(4-chlorophenyl)(phenyl)methyl]amino}-6-isopropyl-2-(5-methyl-2,5-diazabicyclo[2.2.1]hept-2-yl)-5,6-dihydro-7H-pyrrolo[3,4-d]pyrimidin-7-one] |
| 140 nM | CC(C)N1Cc2c(NC3c4cccnc4CCc4c(F)cccc43)nc(NCCN(C)C)nc2C1=O (stereo not drawn) [Example 21, 2-{[2-(dimethylamino)ethyl]amino}-4-[(9-fluoro-10,11-dihydro-5H-benzo[4,5]cyclohepta[1,2-b]pyridin-5-yl)amino]-6-isopropyl-5,6-dihydro-7H-pyrrolo[3,4-d]pyrimidin-7-one] |
| 270 nM | CC(C)N1Cc2c(NC3c4cc(F)ccc4CCc4ncccc43)nc(NCCN(C)C)nc2C1=O (stereo not drawn) [Example 22, 2-{[2-(dimethylamino)ethyl]amino}-4-[(7-fluoro-10,11-dihydro-5H-benzo[4,5]cyclohepta[1,2-b]pyridin-5-yl)amino]-6-isopropyl-5,6-dihydro-7H-pyrrolo[3,4-d]pyrimidin-7-one] |
| 210 nM | CC(C)N1Cc2c(NC(c3ccc(F)cc3)c3ccc(F)cc3)nc(N3CC4CC3CN4C)nc2C1=O (stereo not drawn) [Example 23, 4-{[bis(4-fluorophenyl)methyl]amino}-6-isopropyl-2-(5-methyl-2,5-diazabicyclo[2.2.1]hept-2-yl)-5,6-dihydro-7H-pyrrolo[3,4-d]pyrimidin-7-one] |
